From PubChem BioAssay AID330 (DTP/NCI, 2004)
Where “and” joins values, the source holds several entries; their conditions need not be identical. Equal values may be shown once. Toxic doses and inconclusive results are not listed. How the source made its calls: active means survival T/C of 150% or more; inactive means T/C below 125% in these data.

Tested on: P388 leukemia ip, CD2F1 mice, survival T/C
Test: NCI In Vivo Anticancer Drug Screen. Data for tumor model P388 Leukemia (intraperitoneal) in CD2F1 (CDF1) mice
Details: endpoint: median survival time, higher = longer survival
In short: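 Mice carrying the transplanted tumor received test compound or vehicle. Survival was recorded in each group, and the value is the treated-group measurement divided by that of the vehicle-treated control group.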

[1] = dose: 25.0 mg/kg/injection, schedule: Q04DX003 (ip), vehicle: saline with Tween-80
[2] = dose: 50.0 mg/kg/injection, schedule: Q04DX003 (ip), vehicle: saline with Tween-80
[3] = dose: 50.0 mg/kg/injection, schedule: Q01DX005 (ip), vehicle: saline with Tween-80
[4] = dose: 100.0 mg/kg/injection, schedule: Q01DX005 (ip), vehicle: saline with Tween-80
[5] = dose: 200.0 mg/kg/injection, schedule: Q01DX005 (ip), vehicle: saline with Tween-80
[6] = dose: 50.0 mg/kg/injection, schedule: Q01DX005 (ip), vehicle: Klucel (hydroxypropylcellulose) (HPC)
[7] = dose: 100.0 mg/kg/injection, schedule: Q01DX005 (ip), vehicle: Klucel (hydroxypropylcellulose) (HPC)
[8] = dose: 60.0 mg/kg/injection, schedule: Q01DX005 (ip), vehicle: saline
[9] = dose: 120.0 mg/kg/injection, schedule: Q01DX005 (ip), vehicle: saline
[10] = dose: 240.0 mg/kg/injection, schedule: Q01DX005 (ip), vehicle: saline
[11] = dose: 50.0 mg/kg/injection, schedule: Q01DX009 (ip), vehicle: saline with Tween-80
[12] = dose: 100.0 mg/kg/injection, schedule: Q01DX009 (ip), vehicle: saline with Tween-80
[13] = dose: 200.0 mg/kg/injection, schedule: Q01DX009 (ip), vehicle: saline with Tween-80
[14] = dose: 60.0 mg/kg/injection, schedule: Q01DX005 (ip), vehicle: saline with Tween-80
[15] = dose: 120.0 mg/kg/injection, schedule: Q01DX005 (ip), vehicle: saline with Tween-80
[16] = dose: 240.0 mg/kg/injection, schedule: Q01DX005 (ip), vehicle: saline with Tween-80
[17] = dose: 12.5 mg/kg/injection, schedule: Q01DX009 (ip), vehicle: saline with Tween-80
[18] = dose: 25.0 mg/kg/injection, schedule: Q01DX009 (ip), vehicle: saline with Tween-80

Measured: T/C

C=CCCn1nnc(-c2ccccc2)n1
inactive: [1] 102 % of control | [2] 96 % of control | dose: 100.0 mg/kg/injection, schedule: Q04DX003 (ip), vehicle: saline with Tween-80 100 % of control | dose: 200.0 mg/kg/injection, schedule: Q04DX003 (ip), vehicle: saline with Tween-80 104 % of control and 105 % of control | dose: 400.0 mg/kg/injection, schedule: Q04DX003 (ip), vehicle: saline with Tween-80 94 % of control

CC(C)=Cc1ccccc1C1(C)C(c2ccccc2)=C1c1ccccc1
inactive: dose: 100.0 mg/kg/injection, schedule: Q04DX002 (ip), vehicle: Klucel (hydroxypropylcellulose) (HPC) 100 % of control | dose: 200.0 mg/kg/injection, schedule: Q04DX002 (ip), vehicle: Klucel (hydroxypropylcellulose) (HPC) 98 % of control | dose: 400.0 mg/kg/injection, schedule: Q04DX002 (ip), vehicle: Klucel (hydroxypropylcellulose) (HPC) 98 % of control

O=C1Nc2c(Cl)cc(Cl)cc2/C1=N/N=C/c1ccco1
inactive: [3] 101 % of control | [4] 104 % of control | [5] 104 % of control

O=C(CCCCCCCCc1ccc(O)c(O)c1)c1c(O)cccc1O
inactive: dose: 3.0 mg/kg/injection, schedule: Q01DX009 (ip), vehicle: Klucel (hydroxypropylcellulose) (HPC) 101 % of control | dose: 12.0 mg/kg/injection, schedule: Q01DX009 (ip), vehicle: Klucel (hydroxypropylcellulose) (HPC) 108 % of control | dose: 24.0 mg/kg/injection, schedule: Q01DX009 (ip), vehicle: Klucel (hydroxypropylcellulose) (HPC) 101 % of control

Cc1cccc(-n2c(C)nc3[nH]cc(C)c3c2=N)c1
inactive: [6] 99 % of control | [7] 105 % of control

COc1ccc(/C=N/N2CN(C(C)C(=O)O)C(C)(O)N=C2N)cc1OC (stereo not drawn)
inactive: [8] 102 % of control | [9] 104 % of control | [10] 103 % of control

CCCCN(CCCC)CCC(O)c1cc(C(F)(F)F)nc2c(C(F)(F)F)cccc12 (stereo not drawn)
inactive: [11] 104 % of control | [12] 114 % of control | [13] 100 % of control

O=C(Nc1cc(-c2ccccc2)nn1-c1ccccc1)c1ccc(Cl)cc1
inactive: [14] 99 % of control and 94 % of control | [15] 93 % of control | [16] 87 % of control and 94 % of control

O=[N+]([O-])c1cccn2nnnc12
inactive: dose: 3.12 mg/kg/injection, schedule: Q01DX009 (ip), vehicle: saline with Tween-80 102 % of control | dose: 6.25 mg/kg/injection, schedule: Q01DX009 (ip), vehicle: saline with Tween-80 87 % of control | [17] 93 % of control | [18] 95 % of control | [11] 117 % of control and 96 % of control | [12] 119 % of control

CC1(c2ccc(Cl)cc2)NC(=O)N(CN2CCCCC2)C1=O (stereo not drawn)
inactive: [17] 100 % of control | [18] 100 % of control | [11] 100 % of control | dose: 50.0 mg/kg/injection, schedule: Q04DX003 (ip), vehicle: saline sonified 100 % of control | dose: 100.0 mg/kg/injection, schedule: Q04DX003 (ip), vehicle: saline sonified 107 % of control | dose: 200.0 mg/kg/injection, schedule: Q04DX003 (ip), vehicle: saline sonified 100 % of control

COc1cccc(C2c3cc4c(cc3OC(C)(O)C2C)OCO4)c1OC (stereo not drawn)
inactive: dose: 60.0 mg/kg/injection, schedule: Q01DX005 (ip), vehicle: Klucel (hydroxypropylcellulose) (HPC) 103 % of control | dose: 120.0 mg/kg/injection, schedule: Q01DX005 (ip), vehicle: Klucel (hydroxypropylcellulose) (HPC) 97 % of control | dose: 240.0 mg/kg/injection, schedule: Q01DX005 (ip), vehicle: Klucel (hydroxypropylcellulose) (HPC) 95 % of control

CCOC(=O)/C(C#N)=C/c1ccc(-c2cc(C(F)(F)F)cc(C(F)(F)F)c2)o1
inactive: [3] 92 % of control | [4] 90 % of control | [5] 88 % of control

Cc1ccc2occ3c(=O)n(C)nc-3c2c1
inactive: [14] 95 % of control | [15] 91 % of control | [16] 94 % of control

Nc1ccc(S(=O)(=O)NC(CSSCC(NS(=O)(=O)c2ccc(N)cc2)C(=O)O)C(=O)O)cc1 (stereo not drawn)
inactive: [6] 110 % of control | [7] 101 % of control | dose: 200.0 mg/kg/injection, schedule: Q01DX005 (ip), vehicle: Klucel (hydroxypropylcellulose) (HPC) 113 % of control

O=Cc1cccc(S(=O)(=O)O)c1
inactive: [8] 100 % of control | [9] 94 % of control | [10] 102 % of control

C=C1C(O)C23CCC4C(C(=O)O)(C(=O)O)CC(OC5OC(CO)C(O)C(OC(=O)CCc6ccccc6)C5NC(=O)CC(C)C)CC4(C)C2CCC1(O)C3 (stereo not drawn)
inactive: dose: 0.25 mg/kg/injection, schedule: Q01DX005 (ip), vehicle: Klucel (hydroxypropylcellulose) (HPC) 96 % of control | dose: 0.5 mg/kg/injection, schedule: Q01DX005 (ip), vehicle: Klucel (hydroxypropylcellulose) (HPC) 98 % of control | dose: 1.0 mg/kg/injection, schedule: Q01DX005 (ip), vehicle: Klucel (hydroxypropylcellulose) (HPC) 100 % of control | dose: 3.12 mg/kg/injection, schedule: Q01DX005 (ip), vehicle: Klucel (hydroxypropylcellulose) (HPC) 101 % of control

COc1ccc(C2[C@H](C(=O)O)c3ccccc3C(=O)N2Cc2ccccc2)cc1 (stereo partly drawn)
inactive: dose: 100.0 mg/kg/injection, schedule: Q04DX002 (ip), vehicle: saline with Tween-80 101 % of control | dose: 200.0 mg/kg/injection, schedule: Q04DX002 (ip), vehicle: saline with Tween-80 104 % of control | dose: 400.0 mg/kg/injection, schedule: Q04DX002 (ip), vehicle: saline with Tween-80 103 % of control

COc1cccc(CSC(=N)N)c1
inactive: dose: 12.5 mg/kg/injection, schedule: Q01DX009 (ip), vehicle: Klucel (hydroxypropylcellulose) (HPC) 109 % of control | dose: 25.0 mg/kg/injection, schedule: Q01DX009 (ip), vehicle: Klucel (hydroxypropylcellulose) (HPC) 99 % of control | dose: 50.0 mg/kg/injection, schedule: Q01DX009 (ip), vehicle: Klucel (hydroxypropylcellulose) (HPC) 100 % of control and 110 % of control

C#CCNC1=CC(=O)CCC1
inactive: [8] 100 % of control | [9] 106 % of control | [10] 118 % of control

C=C(C)C1C/C=C(\C)CC/C=C(\C)CC/C=C(\C)CC1 (stereo not drawn)
inactive: dose: 18.75 mg/kg/injection, schedule: Q01DX009 (ip), vehicle: saline + Tween-80 + alcohol 93 % of control | dose: 37.5 mg/kg/injection, schedule: Q01DX009 (ip), vehicle: saline + Tween-80 + alcohol 101 % of control | dose: 75.0 mg/kg/injection, schedule: Q01DX009 (ip), vehicle: saline + Tween-80 + alcohol 102 % of control | dose: 150.0 mg/kg/injection, schedule: Q01DX009 (ip), vehicle: saline + Tween-80 + alcohol 99 % of control

CC[n+]1c(/C=C/c2ccc(N(CCC(=O)O)CCC(=O)O)cc2C)sc2ccccc21
inactive: dose: 12.5 mg/kg/injection, schedule: Q04DX003 (ip), vehicle: saline with Tween-80 99 % of control | [1] 95 % of control | [2] 100 % of control

CON1C(=O)c2ccccc2C1=O
inactive: [12] 99 % of control | [13] 106 % of control | dose: 400.0 mg/kg/injection, schedule: Q01DX009 (ip), vehicle: saline with Tween-80 106 % of control

C=CC[n+]1cc2c3ccccc3c(N)cc2c2ccccc21
inactive: dose: 1.56 mg/kg/injection, schedule: Q04DX003 (ip), vehicle: water 107 % of control | dose: 3.13 mg/kg/injection, schedule: Q04DX003 (ip), vehicle: water 116 % of control | dose: 6.25 mg/kg/injection, schedule: Q04DX003 (ip), vehicle: water 114 % of control | dose: 12.5 mg/kg/injection, schedule: Q04DX003 (ip), vehicle: other 106 % of control | dose: 12.5 mg/kg/injection, schedule: Q04DX003 (ip), vehicle: water 109 % of control

CC(=O)c1c(C)cc(C)c(C(C)=O)c1C
inactive: dose: 50.0 mg/kg/injection, schedule: Q01DX009 (ip), vehicle: saline 102 % of control | dose: 100.0 mg/kg/injection, schedule: Q01DX009 (ip), vehicle: saline 96 % of control | dose: 200.0 mg/kg/injection, schedule: Q01DX009 (ip), vehicle: saline 91 % of control
